From US9226907B2 (priority 2008, dated 2016)

Assays:
clinical = conditions: in vivo
Description: Hydrocodone is structurally similar to other opioid analgesics (hydromorphone and oxycodone).

[1] = in vivo
[2] = higher drug concentrations associated with overdosage (280 μg/mL); cited from earlier work

CC(=O)Nc1ccc(O)cc1 [acetaminophen, 4′-hydroxyacetanilide]
Effect of food on Cmax or AUC (clinical; human): no effect on Cmax or AUC | Time by which steady state was achieved (clinical; human): ≤ 24 h | Vd (clinical; human): 78 to 245 L | Cmax and AUC versus dose (clinical): proportional to dose | Variability in exposures (Cmax and AUC) ([1]; human): not affected by ethanol coadministration | AUC with different ethanol concentrations versus 0% ethanol [1]: equivalent to that of Vicodin CR alone | Bound to plasma proteins [2]: 15-21%
